# Article PMC11157491, “Novel Alaninamide Derivatives with Drug-like Potential for Development as Antiseizure and Antinociceptive Therapies—In Vitro and In Vivo Characterization” (ACS Chemical Neuroscience, 2024)
# Experiments:
# TRPV1 (VR1) (h) = biological target: T1, TRPV1 (VR1) (h) (Homo sapiens, UniProt Q8NER1); test: TRPV1 antagonist effect functional assay; assay type: cell-based; conditions: human recombinant CHO cells; for inhibition at 10 µM: read-out: % inhibition of control agonist response
# T1 construct: Eurofins (contract assay)
# T1 sequence (Q8NER1 whole entry): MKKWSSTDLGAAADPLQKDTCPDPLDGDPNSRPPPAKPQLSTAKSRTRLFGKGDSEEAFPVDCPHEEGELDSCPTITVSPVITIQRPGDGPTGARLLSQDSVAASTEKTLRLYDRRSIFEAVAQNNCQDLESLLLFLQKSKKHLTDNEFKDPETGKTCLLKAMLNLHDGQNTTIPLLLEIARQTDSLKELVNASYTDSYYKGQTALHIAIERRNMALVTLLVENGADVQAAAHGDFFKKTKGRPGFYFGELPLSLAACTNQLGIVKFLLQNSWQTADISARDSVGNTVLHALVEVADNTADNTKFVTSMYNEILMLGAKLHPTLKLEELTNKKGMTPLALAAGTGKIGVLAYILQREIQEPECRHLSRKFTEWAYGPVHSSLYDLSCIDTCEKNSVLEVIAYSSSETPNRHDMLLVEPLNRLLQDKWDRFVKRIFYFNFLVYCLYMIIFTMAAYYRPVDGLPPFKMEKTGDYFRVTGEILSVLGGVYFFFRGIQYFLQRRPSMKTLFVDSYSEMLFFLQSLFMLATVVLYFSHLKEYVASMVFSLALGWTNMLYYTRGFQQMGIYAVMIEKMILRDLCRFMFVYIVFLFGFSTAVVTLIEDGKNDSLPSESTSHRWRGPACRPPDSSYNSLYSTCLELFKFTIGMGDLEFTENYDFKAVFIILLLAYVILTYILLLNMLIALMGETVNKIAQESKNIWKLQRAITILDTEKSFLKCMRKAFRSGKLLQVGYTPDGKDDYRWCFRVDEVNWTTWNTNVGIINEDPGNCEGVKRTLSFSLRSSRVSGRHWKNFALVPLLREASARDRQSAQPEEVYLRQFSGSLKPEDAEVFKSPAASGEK
# Procedure: For many years, the TRPV1 channel, permeable to calcium and sodium ions, has been recognized as a promising molecular target for novel analgesics.[19] […] Therefore, bearing in mind the involvement of TRPV1 in pain sensation and potentially in seizure induction, in the next step of the in vitro studies, the TRPV1 antagonist activity was determined for all compounds obtained (Table 6).
# Binding/functional studies were carried out commercially in Eurofins Laboratories (Poitiers, France) and Eurofins Panlabs Discovery Services Taiwan, Ltd. (New Taipei City, Taiwan) using testing procedures that were reported previously (for details, see Table S2).
# Table S2. Radioligand binding and functional assays. […]
# TRPV1 (VR1) (h) (antagonist effect) […]
# Assays were performed commercially in Eurofins Laboratories ( Poitiers, France) or Eurofins Panlabs Discovery Services
# Taiwan, Ltd. (New Taipei City, Taiwan).
# mice [1] = test: 6 Hz (32 mA) psychomotor seizure model; assay type: in vivo; conditions: Mus musculus, ip; for responders at 100 mg/kg: 100 mg/kg i.p., 0.5 h; for ED50: mice, pretreatment 0.5 h
# Source text: (§1) Identification and profiling of new ASM candidate compounds are still largely based on predictive animal models of seizures/epilepsy, while a range of in silico and in vitro approaches (i.e., molecular modeling or high throughput screening, etc.) are increasingly used in the early stages of ASM discovery.[31] The Epilepsy Therapy Screening Program (ETSP) of the National Institute of Neurological Disorders and Stroke (NIH, Bethesda, MD) has enabled the discovery of several approved ASMs by focusing on the in vivo testing of compounds synthesized by both academic laboratories and industry.[32] The ETSP provides a broad panel of seizure tests (ca. 30 rodent models), but a subset of them is used for the initial screening of new compounds with potential antiseizure activity. The routinely used seizure models include: (i) the MES test, which is an experimental model of tonic–clonic seizures, (ii) the 6 Hz model (32 mA) of focal seizures, and (iii) the scPTZ model of generalized absence or myoclonic seizures.[33],[34] Consequently, in the current studies, all final compounds 21–36 and 45–48 were initially studied in the MES and the 6 Hz (32 mA) seizure models after intraperitoneal (i.p.) administration at a screening dose of 100 mg/kg in mice at a time point of 0.5 h (the screening group consisted of four mice, and the results obtained are summarized in Table S1).
# (§2) These parameters were then used to calculate the protective indexes (PIs, PI = TD50/ED50), which describe the therapeutics window of potential drug candidates. The ED50, TD50, and PI values for the tested compounds together with data of their chemical prototypes KA-11 and KJ-5 and reference ASMs are summarized in Table 2.
# (§3) The adult male Albino Swiss mice weighed between 22 and 26 g were used in the in vivo studies. They were housed under standardized housing conditions in colony cages and had free access to food as well as tap water. The animals were left to adapt under laboratory conditions for 7 days. All procedures involving animals and their care were performed in accordance with the current European Community and Polish legislation on animal experimentation.
# (§4) In the initial screening studies, four mice per group were randomly assigned to each experimental group (each mouse was used only once). To evaluate the ED50 or TD50 values, four groups consisting of eight animals were injected with various doses of tested compounds. The protective indexes (PIs) for the compounds investigated and reference ASMs were calculated by dividing the TD50 value, as determined in the chimney test, by the respective ED50 value, as determined in the MES, scPTZ, or 6 Hz (32 or 44 mA) tests (PI = TD50/ED50). The PIs are a measure of the potential therapeutic window of the tested agent.
# (§5) All substances were suspended in Tween 80 (1% aqueous solution) and administered i.p. as a single injection at a dose of 10 mL/kg. On each day of experimentation, fresh solutions were prepared. The detailed in vivo procedures are described elsewhere: the maximal electroshock seizure test (MES),[60] the subcutaneous pentylenetetrazole seizure test (scPTZ),[61] the 6 Hz psychomotor seizure model (32 and 44 mA),[62] and the chimney test.[63] The reference ASMs were purchased from commercial suppliers: VPA (Sigma-Aldrich, St. Louis, MO), LCS, and LEV (UCB Pharma, Braine l’Alleud, Belgium).
# mice [2] = test: Maximal electroshock (MES) seizure test; assay type: in vivo; conditions: for responders at 100 mg/kg / ED50: Mus musculus, ip; for responders at 100 mg/kg / antiseizure protection in MES screening: 100 mg/kg i.p., 0.5 h; for responders at 100 mg/kg: read-out: MES: number of mice protected/number of mice tested (converted); for antiseizure protection in MES screening: four mice; for ED50: mice, pretreatment 0.5 h
# Source text: as §1, §2, §3, §4, §5
# mice [3] = test: Subcutaneous pentylenetetrazole (scPTZ) seizure test; assay type: in vivo; conditions: for protection in scPTZ screening / scPTZ: number of mice protected/number of mice tested: 100 mg/kg i.p.; for scPTZ: number of mice protected/number of mice tested: 0.5 h
# Source text: as §2, §4, §5
# [4] = four mice, read-out: protection in 6 Hz (32 mA) screening
# [5] = read-out: 6 Hz (32 mA): number of mice protected/number of mice tested (converted)
Compound,inhibition at 10 µM (TRPV1 (VR1) (h)),responders at 100 mg/kg (mice [1]; [4]),responders at 100 mg/kg (mice [1]; [5]),melting point,responders at 100 mg/kg (mice [2]),ED50 (mice [1]),antiseizure protection in MES screening (mice [2]),ED50 (mice [2]),protection in scPTZ screening (mice [3]),scPTZ: number of mice protected/number of mice tested (mice [3]),Kb (TRPV1 (VR1) (h)),"ED50 (mice [3]; Mus musculus, ip, mice)"
"CC(=O)NC(C)C(=O)N1CCN(c2ccccc2)CC1 (stereo not drawn) [Compound 21, N-(1-oxo-1-(4-Phenylpiperazin-1-yl)propan-2-yl)acetamide]",1.6%,25%,25%,113.6 to 114.9 °C,0%,–,–,–,–,–,–,–
"CC(=O)NC(C)C(=O)N1CCN(c2cccc(Cl)c2)CC1 (stereo not drawn) [Compound 22, N-(1-(4-(3-Chlorophenyl)piperazin-1-yl)-1-oxopropan-2-yl)acetamide]",12.5%,75%,75%,125.8 to 126.5 °C,100%,77.3 mg/kg,100%,122 mg/kg,25%,1/4,–,–
"CC(=O)NC(C)C(=O)N1CCN(c2ccc(Cl)cc2)CC1 (stereo not drawn) [Compound 23, N-(1-(4-(4-Chlorophenyl)piperazin-1-yl)-1-oxopropan-2-yl)acetamide]",-4.6%,–,0%,144.9 to 145.8 °C,0%,–,–,–,–,–,–,–
"CC(=O)NC(C)C(=O)N1CCN(c2ccc(Cl)c(Cl)c2)CC1 (stereo not drawn) [Compound 24, N-(1-(4-(3,4-Dichlorophenyl)piperazin-1-yl)-1-oxopropan-2-yl)acetamide]",51.5%,100%,100%,152.1 to 152.9 °C,75%,41.4 mg/kg,75%,> 150 mg/kg,75%,3/4,4.5 µM,116 mg/kg
"CC(=O)NC(C)C(=O)N1CCN(c2ccc(C(F)(F)F)cc2)CC1 (stereo not drawn) [Compound 27, N-(1-oxo-1-(4-(4-(Trifluoromethyl)phenyl)piperazin-1-yl)propan-2-yl)acetamide]",-15.9%,–,0%,132.8 to 133.3 °C,25%,–,25%,–,–,–,–,–
"CC(NC(=O)c1ccccc1)C(=O)N1CCN(c2cccc(Cl)c2)CC1 (stereo not drawn) [Compound 31, N-(1-(4-(3-Chlorophenyl)piperazin-1-yl)-1-oxopropan-2-yl)benzamide]",4.6%,–,0%,177.8 to 178.5 °C,0%,–,–,–,–,–,–,–
"CC(NC(=O)c1ccccc1)C(=O)N1CCN(c2cccc(C(F)(F)F)c2)CC1 (stereo not drawn) [Compound 32, N-(1-oxo-1-(4-(3-(Trifluoromethyl)phenyl)piperazin-1-yl)propan-2-yl)benzamide]",-16.1%,25%,25%,165.8 to 166.5 °C,0%,–,–,–,–,–,–,–
"CCNC(=O)NC(C)C(=O)N1CCN(c2cccc(Cl)c2)CC1 (stereo not drawn) [Compound 33, 1-(1-(4-(3-Chlorophenyl)piperazin-1-yl)-1-oxopropan-2-yl)-3-ethylurea]",-11.7%,–,50%,145.1 to 146.2 °C,0%,–,–,–,–,–,–,–
"CCNC(=O)NC(C)C(=O)N1CCN(c2cccc(C(F)(F)F)c2)CC1 (stereo not drawn) [Compound 34, 1-Ethyl-3-(1-oxo-1-(4-(3-(trifluoromethyl)phenyl)piperazin-1-yl)propan-2-yl)urea]",-5.3%,–,50%,136.4 to 137.3 °C,0%,–,–,–,–,–,–,–
"CC(C)NC(=O)NC(C)C(=O)N1CCN(c2cccc(Cl)c2)CC1 (stereo not drawn) [Compound 35, 1-(1-(4-(3-Chlorophenyl)piperazin-1-yl)-1-oxopropan-2-yl)-3-isopropylurea]",-11.9%,–,50%,147.4 to 148.2 °C,0%,–,–,–,–,–,–,–
"CC(C)NC(=O)NC(C)C(=O)N1CCN(c2cccc(C(F)(F)F)c2)CC1 (stereo not drawn) [Compound 36, 1-Isopropyl-3-(1-oxo-1-(4-(3-(trifluoromethyl)phenyl)piperazin-1-yl)propan-2-yl)urea]",-13.6%,25%,25%,144.5 to 145.4 °C,25%,–,25%,–,–,–,–,–
"CC(=O)NC(C)C(=O)NC1CCN(c2ccccc2)C1 (stereo not drawn) [Compound 45, 2-Acetamido-N-(1-phenylpyrrolidin-3-yl)propanamide]",-11.6%,–,0%,176.6 to 177.8 °C,0%,–,–,–,–,–,–,–
"CC(=O)NC(C)C(=O)NC1CCN(c2cccc(C(F)(F)F)c2)C1 (stereo not drawn) [Compound 46, 2-Acetamido-N-(1-(3-(trifluoromethyl)phenyl)pyrrolidin-3-yl)propanamide]",-10%,–,0%,162.8 to 163.7 °C,0%,–,–,–,–,–,–,–
"CC(=O)NC(C)C(=O)NC1CCN(c2cccc(OC(F)(F)F)c2)C1 (stereo not drawn) [Compound 47, 2-Acetamido-N-(1-(3-(trifluoromethoxy)phenyl)pyrrolidin-3-yl)propanamide]",-8.3%,50%,50%,164.8 to 165.9 °C,0%,–,–,–,–,–,–,–
"CC(=O)NC(C)C(=O)NC1CCN(c2cccc(SC(F)(F)F)c2)C1 (stereo not drawn) [Compound 48, 2-Acetamido-N-(1-(3-((trifluoromethyl)thio)phenyl)pyrrolidin-3-yl)propanamide]",4.2%,50%,50%,162.2 to 163.3 °C,0%,–,–,–,–,–,–,–
